The record followed here is PubChem BioAssay (NCI).

Test systems include OVCAR-3 ovarian; OVCAR-5 ovarian; OVCAR-8 ovarian; IGROV1 ovarian; CAKI-1 renal; HS 578T breast; UACC-62 melanoma; NCI-H522 lung; UO-31 renal; EKVX NSCLC.
What all share (test): DTP human tumour cell line panel, 48 h

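Each compound was tested at five concentrations against cells in 96-well plates for 48 hours. Abbreviation: GI50, concentration required for 50% inhibition of growth. TGI marks complete inhibition of growth.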

As to `Cn1cc(C2=C(c3ccc4ccccc4c3)C(=O)NC2=O)c2ccccc21`, the GI50 with OVCAR-3 ovarian was greater than 25 µM; in the experiment on OVCAR-5 ovarian, greater than 25 µM; in the experiment with OVCAR-8 ovarian, greater than 25 µM; with IGROV1 ovarian, greater than 19.5 µM; in the experiment on CAKI-1 renal, greater than 16.7 µM; with HS 578T breast, greater than 17.7 µM. Moreover, the GI50 with UACC-62 melanoma is 21.3 µM; in the experiment on NCI-H522 lung it was 12.1 µM; in the experiment with UO-31 renal, greater than 12.4 µM. The TGI in the experiment on OVCAR-3 ovarian, in the experiment on OVCAR-5 ovarian, in the experiment on OVCAR-8 ovarian, with IGROV1 ovarian, in the experiment on CAKI-1 renal and in the experiment with HS 578T breast was greater than 25 µM in each case. The total growth inhibition concentration (TGI) with UACC-62 melanoma, in the experiment on NCI-H522 lung and in the experiment with UO-31 renal was greater than 25 µM each time.
Regarding `O=C1NC(=Nc2ccccc2)S/C1=C\c1ccc2ncccc2c1`, the GI50 is 1.11 µM in the experiment on OVCAR-3 ovarian; greater than 25 µM with OVCAR-5 ovarian; greater than 25 µM with OVCAR-8 ovarian; greater than 7.5 µM in the experiment with IGROV1 ovarian; greater than 25 µM with CAKI-1 renal; greater than 11.8 µM in the experiment on HS 578T breast. The GI50 is 13.4 µM in the experiment with UACC-62 melanoma, greater than 12.3 µM in the experiment on NCI-H522 lung and greater than 25 µM in the experiment on UO-31 renal. The TGI in the experiment with OVCAR-3 ovarian, in the experiment with OVCAR-5 ovarian, with OVCAR-8 ovarian, in the experiment with IGROV1 ovarian, with CAKI-1 renal and in the experiment with HS 578T breast was greater than 25 µM throughout. Moreover, the TGI in the experiment with UACC-62 melanoma, in the experiment on NCI-H522 lung and in the experiment with UO-31 renal was greater than 25 µM throughout.
Turning to `COc1ccc(N(C)c2ncnc3occ(C)c23)cc1`, the GI50 was less than 0.0113 µM in the experiment with OVCAR-5 ovarian; less than 0.01 µM in the experiment on OVCAR-8 ovarian; less than 0.01 µM in the experiment on IGROV1 ovarian; less than 0.01 µM in the experiment with EKVX NSCLC; less than 0.01 µM in the experiment on CAKI-1 renal; less than 0.01 µM in the experiment with HS 578T breast. Also, the GI50 with UACC-62 melanoma, in the experiment with NCI-H522 lung and with UO-31 renal was less than 0.01 µM in each case. Further, the TGI was greater than 100 µM in the experiment on OVCAR-5 ovarian; greater than 100 µM with OVCAR-8 ovarian; greater than 100 µM with IGROV1 ovarian; greater than 100 µM in the experiment with EKVX NSCLC; greater than 100 µM with CAKI-1 renal; less than 0.01 µM in the experiment with HS 578T breast. For the same molecule, the TGI was greater than 100 µM in the experiment on UACC-62 melanoma, less than 0.01 µM with NCI-H522 lung and greater than 100 µM in the experiment on UO-31 renal.
For `Ic1ccc(Nc2nc3nonc3nc2Nc2ccc(I)cc2)cc1`, the GI50 with OVCAR-3 ovarian was 0.214 µM; in the experiment on OVCAR-5 ovarian, 0.387 µM; in the experiment on OVCAR-8 ovarian, 0.351 µM; with IGROV1 ovarian, 0.46 µM; with EKVX NSCLC it was 0.245 µM; in the experiment with CAKI-1 renal it was 0.214 µM. Also, the GI50 in the experiment with HS 578T breast was 0.329 µM. Besides, the TGI with OVCAR-3 ovarian was greater than 100 µM; in the experiment on OVCAR-5 ovarian it was greater than 100 µM; in the experiment on OVCAR-8 ovarian, greater than 100 µM; with IGROV1 ovarian, greater than 100 µM; in the experiment with EKVX NSCLC, greater than 100 µM; in the experiment on HS 578T breast it was 2.21 µM.
Regarding `COC(=O)C1=C(C)N(NC(=O)c2ccccc2)C(C)(O)C12CCOC2=O` (stereo not drawn), the TGI in the experiment on OVCAR-3 ovarian, with OVCAR-5 ovarian, in the experiment on OVCAR-8 ovarian, with IGROV1 ovarian, in the experiment with EKVX NSCLC and in the experiment on CAKI-1 renal was greater than 100 µM throughout. Besides, the total growth inhibition concentration (TGI) in the experiment on UACC-62 melanoma, with NCI-H522 lung and in the experiment on UO-31 renal was greater than 100 µM throughout.
Take `CS(=O)(=O)N/N=C/CN1C(=O)c2ccccc2C1=O`: the TGI with OVCAR-3 ovarian, in the experiment with OVCAR-5 ovarian, in the experiment with OVCAR-8 ovarian, in the experiment on IGROV1 ovarian, in the experiment on EKVX NSCLC and with CAKI-1 renal was greater than 100 µM in each case. In addition, the TGI with UACC-62 melanoma, with NCI-H522 lung and with UO-31 renal was greater than 100 µM throughout.
Take `CCCCCCCCCC/C=C/CC(=O)SCCNC(=O)CCNC(=O)[C@@H](O)C(C)(C)COP(=O)(O)OP(=O)(O)OCC1OC(n2cnc3c(N)ncnc32)C(O)C1OP(=O)(O)O` (stereo partly drawn): the TGI in the experiment on OVCAR-3 ovarian, with OVCAR-5 ovarian, in the experiment on OVCAR-8 ovarian, in the experiment on IGROV1 ovarian, in the experiment with EKVX NSCLC and with CAKI-1 renal was greater than 10 µM in each case. Also, the TGI in the experiment with HS 578T breast and with UACC-62 melanoma was greater than 10 µM each time.
Take `Cc1ccc(S(=O)(=O)NCC2CCCCC2=O)cc1` (stereo not drawn): the TGI was greater than 100 µM in the experiment with OVCAR-3 ovarian; greater than 100 µM in the experiment with OVCAR-5 ovarian; greater than 100 µM in the experiment with OVCAR-8 ovarian; greater than 100 µM in the experiment with IGROV1 ovarian; greater than 100 µM in the experiment on EKVX NSCLC; 67.5 µM with CAKI-1 renal. For the same molecule, the TGI with UACC-62 melanoma, in the experiment with NCI-H522 lung and in the experiment with UO-31 renal was greater than 100 µM throughout.
In the case of `COC(=O)c1cc2c3ccccc3n(C(C)=O)c2cn1`, the TGI in the experiment on OVCAR-3 ovarian is greater than 100 µM; in the experiment on OVCAR-5 ovarian, greater than 100 µM; in the experiment with OVCAR-8 ovarian, greater than 100 µM; in the experiment on IGROV1 ovarian, greater than 100 µM; in the experiment on EKVX NSCLC it was greater than 100 µM; in the experiment on CAKI-1 renal, 48.9 µM. The TGI with UACC-62 melanoma, in the experiment with NCI-H522 lung and with UO-31 renal was greater than 100 µM in each case.
On to `CCN1CCN(c2ccc(Nc3cc(N(C)C(=O)Nc4c(Cl)c(OC)cc(OC)c4Cl)ncn3)cc2)CC1`, for which the GI50 with OVCAR-3 ovarian was 5.67 µM; with OVCAR-5 ovarian it was 3.7 µM; with OVCAR-8 ovarian, 3.07 µM; with IGROV1 ovarian, 4.12 µM; in the experiment on CAKI-1 renal, 4.19 µM; in the experiment with HS 578T breast, 1.34 µM. Further, the GI50 with UACC-62 melanoma is 1.66 µM; in the experiment on NCI-H522 lung, 5.21 µM; in the experiment with UO-31 renal it was 1.35 µM. In addition, the TGI is 15.9 µM with OVCAR-3 ovarian; 14.7 µM with OVCAR-5 ovarian; 22.9 µM in the experiment on OVCAR-8 ovarian; 22.6 µM in the experiment with IGROV1 ovarian; greater than 48.2 µM in the experiment on CAKI-1 renal; 9.2 µM in the experiment with HS 578T breast. The results for the TGI in the experiment with UACC-62 melanoma, in the experiment with NCI-H522 lung and with UO-31 renal were 3.14 µM, 10.9 µM and 10 µM, respectively.
As for `S=C(N/N=C/c1ccco1)NC12CC3CC(CC(C3)C1)C2`, the TGI in the experiment with OVCAR-3 ovarian, in the experiment on OVCAR-5 ovarian, with OVCAR-8 ovarian, in the experiment on IGROV1 ovarian, in the experiment with EKVX NSCLC and in the experiment with CAKI-1 renal was greater than 100 µM throughout. In addition, the TGI with UACC-62 melanoma, in the experiment on NCI-H522 lung and in the experiment with UO-31 renal was greater than 100 µM in each case.

One may read the GI50 as the concentration giving 50% growth inhibition. As usually defined, the TGI is the concentration giving total growth inhibition. Read a low TGI as more potent growth arrest.
